Test results published in US20070004653A1, “Stable lyophilized anthracycline glycosides” (priority 2005, published 2007).

Experiments:
[1] = Preparation of stable lyophilized anthracycline glycoside hydrochlorides: aglycone and dimer in the lyophilized product; format: physicochemical; conditions: frozen and lyophilized
Procedure: (§1) Idarubicin hydrochloride (500 mg) was dissolved in water (50 ml) and acetic acid and ammonium acetate (both 1.5% molar amount with respect to the molar amount of idarubicin hydrochloride) were added. The solution was frozen and lyophilized.
as §1, with “Charcoal was then added (100 g) and the solution was stirred for two hours. After that, the suspension was filtered through 0.4 micron membrane and then the” for “The”
Doxorubicin hydrochloride (500 mg) was dissolved in water (20 ml) and the pH corrected to 3.5 with acetic acid at room temperature. The solution was then warmed to 60° C. for 2 hours and then ammonium acetate (1.5% molar amount with respect to the molar amount of doxorubicin hydrochloride) was added. Then the solution was quickly frozen and lyophilized.
(§2) Epirubicin hydrochloride (1550 mg) was dissolved in water (100 ml) and the pH corrected to 3.2-3.8 with hydrochloric acid at room temperature. The solution was then warmed to 60° C.-65° C. for 1 hours and then the solution was cooled to 50-60° C. At the same time, the pH was corrected to 4.5-5.0 with sodium hydroxide. Then the solution was quickly frozen and lyophilized.
Idarubicin hydrochloride (5.0 g) was dissolved in water (500 ml). Then 58 microlitres of AMBERLITE® IRA-67 (1.6M) acetate (meaning 1.0% molar amount with respect to the molar amount of idarubicin hydrochloride) and 4.5 mg of acetic acid (meaning 0.8% molar amount with respect to the molar amount of idarubicin hydrochloride) were added. The suspension was slurried for two hours, then filtered, frozen and lyophilized.
Doxorubicin hydrochloride (5.0 g) was dissolved in water (200 ml) and the pH corrected to 4.6-4.8 with IN hydrochloric acid at room temperature. Then 80 microlitres of AMBERLITE® IRA-67 (1.6M) acetate (meaning 1.5% molar amount with respect to the molar amount of doxorubicin hydrochloride) was added. The solution was then filtered, frozen and lyophilized.
as §2, with “was” for “was then”, “hour” for “hours”, “AMBERLITE® IRA-67 free base.” for “sodium hydroxide.”, “filtered, frozen,” for “frozen”

[2] = Stability tests of stabilized Idarubicin HCl, 1% w/v aqueous solution with NH4OAc or NH4OAc + AcOH; format: physicochemical
Procedure: Starting product was idarubicin hydrochloride, 1% w/v aqueous solution, the analysis of which is shown in the data reported at t=0. 3% mol of NH4OAc with respect to idarubicin hydrochloride was added to the solution at t=0 and the solution was incubated at 4° C. for the indicated time.
Starting product was idarubicin hydrochloride, 1% w/v aqueous solution, the analysis of which is shown in the data reported at t=0. 3% mol of NH4OAc with respect to idarubicin hydrochloride was added to the solution at t=0 and the solution was incubated at 20° C. for the indicated time.
(§3) Starting product was idarubicin hydrochloride, 1% w/v aqueous solution, the analysis of which is shown in the data reported at t=0. 1% mol of NH4OAc with respect to idarubicin hydrochloride was added to the solution at t=0 and the solution was incubated at 4° C. for the indicated time.
(§4) Starting product was idarubicin hydrochloride, 1% w/v aqueous solution, the analysis of which is shown in the data reported at t=0. 1% mol of NH4OAc with respect to idarubicin hydrochloride was added to the solution at t=0 and the solution was incubated at 20° C. for the indicated time.
as §3, with “t=0. 0.5%” for “t=0. 1%”, “NH4OAc and 0.5% mol of AcOH” for “NH4OAc”, “hydrochloride were” for “hydrochloride was”
as §4, with “t=0. 0.5%” for “t=0. 1%”, “NH4OAc and 0.5% mol of AcOH” for “NH4OAc”, “hydrochloride were” for “hydrochloride was”, “indicated time as shown in table 30.” for “indicated time.”
as §3, with “t=0. 1.5%” for “t=0. 1%”, “NH4OAc and 1.5% mol of AcOH” for “NH4OAc”, “hydrochloride were” for “hydrochloride was”
as §4, with “t=0. 1.5%” for “t=0. 1%”, “NH4OAc and 1.5% mol of AcOH” for “NH4OAc”, “hydrochloride were” for “hydrochloride was”

[3] = NH4OAc 0.5% mol + AcOH 0.5% mol, pH 5.08, 4° C., 25 hr
[4] = NH4OAc 0.5% mol + AcOH 0.5% mol, pH 5.08, 4° C., 95 hr
[5] = NH4OAc 0.5% mol + AcOH 0.5% mol, pH 5.08, 20° C., 19 hr
[6] = NH4OAc 0.5% mol + AcOH 0.5% mol, pH 5.08, 20° C., 90 hr
[7] = NH4OAc 1% mol, pH 5.92, 4° C., 24 hr
[8] = NH4OAc 1% mol, pH 5.92, 20° C., 18 hr
[9] = NH4OAc 1% mol, pH 5.92, 20° C., 313 hr
[10] = NH4OAc 1.5% mol + AcOH 1.5% mol, pH 4.94, 4° C., 314 hr
[11] = NH4OAc 1.5% mol + AcOH 1.5% mol, pH 4.94, 20° C., 21 hr
[12] = NH4OAc 1.5% mol + AcOH 1.5% mol, pH 4.94, 20° C., 68 hr
[13] = NH4OAc 1.5% mol + AcOH 1.5% mol, pH 4.94, 20° C., 139 hr
[14] = NH4OAc 1.5% mol + AcOH 1.5% mol, pH 4.94, 20° C., 315 hr
[15] = NH4OAc 3% mol, pH 5.94, 4° C., 30 hr
[16] = NH4OAc 3% mol, pH 5.94, 4° C., 131 hr
[17] = NH4OAc 3% mol, pH 5.94, 20° C., 26 hr
[18] = NH4OAc 3% mol, pH 5.94, 20° C., 130 hr

Structure (SMILES): CC(=O)[C@]1(O)Cc2c(O)c3c(c(O)c2[C@@H](O[C@H]2C[C@@H](N)[C@H](O)C(C)O2)C1)C(=O)c1ccccc1C3=O.Cl (stereo partly drawn) [Idarubicin HCl, Idarubicin hydrochloride]
- aglycone contained in lyophilized product ([1]; Example 38: acetic acid and ammonium acetate, both 1.5% molar): 0.12%
- aglycone contained in lyophilized product ([1]; Example 39: acetic acid and ammonium acetate, both 1.5% molar, charcoal, filtered): 0.02%
- aglycone contained in lyophilized product ([1]; Example 42: AMBERLITE IRA-67 acetate 1.0% molar and acetic acid 0.8% molar, slurried two hours, filtered): 0.09%
- aglycone [2, 3]: 0.59%
- bis-anhydro [2, 3]: 0.04%
- aglycone [2, 4]: 0.59%
- bis-anhydro [2, 4]: 0.05%
- aglycone ([2]; NH4OAc 0.5% mol + AcOH 0.5% mol, pH 5.08, 4° C., t = 0): 0.59%
- aglycone [2, 5]: 0.59%
- bis-anhydro [2, 5]: 0.07%
- aglycone [2, 6]: 0.59%
- bis-anhydro [2, 6]: 0.18%
- aglycone ([2]; NH4OAc 0.5% mol + AcOH 0.5% mol, pH 5.08, 20° C., t = 0): 0.59%
- % aglycone [2, 7]: 0.59%
- % bis-anhydro [2, 7]: 0.05%
- % aglycone ([2]; NH4OAc 1% mol, pH 5.92, 4° C., t = 0): 0.59%
- % aglycone [2, 8]: 0.59%
- % bis-anhydro [2, 8]: 0.20%
- % aglycone [2, 9]: 0.60%
- % bis-anhydro [2, 9]: 4.46%
- % aglycone ([2]; NH4OAc 1% mol, pH 5.92, 20° C., t = 0): 0.59%
- aglycone ([2]; NH4OAc 1.5% mol + AcOH 1.5% mol, pH 4.94, 4° C., 26 hr): 0.59%
- aglycone ([2]; NH4OAc 1.5% mol + AcOH 1.5% mol, pH 4.94, 4° C., 97 hr): 0.59%
- aglycone [2, 10]: 0.59%
- bis-anhydro [2, 10]: 0.06%
- aglycone ([2]; NH4OAc 1.5% mol + AcOH 1.5% mol, pH 4.94, 4° C., t = 0): 0.59%
- aglycone [2, 11]: 0.59%
- bis-anhydro [2, 11]: 0.06%
- aglycone [2, 12]: 0.59%
- bis-anhydro [2, 12]: 0.16%
- aglycone [2, 13]: 0.59%
- bis-anhydro [2, 13]: 0.75%
- aglycone [2, 14]: 0.6%
- bis-anhydro [2, 14]: 6.21%
- aglycone ([2]; NH4OAc 1.5% mol + AcOH 1.5% mol, pH 4.94, 20° C., t = 0): 0.59%
- % aglycone [2, 15]: 0.59%
- % bis-anhydro [2, 15]: 0.09%
- % aglycone [2, 16]: 0.59%
- % bis-anhydro [2, 16]: 0.25%
- % aglycone ([2]; NH4OAc 3% mol, pH 5.94, 4° C., t = 0): 0.59%
- % aglycone [2, 17]: 0.59%
- % bis-anhydro [2, 17]: 0.50%
- % aglycone [2, 18]: 0.59%
- % bis-anhydro [2, 18]: 1.39%
- % aglycone ([2]; NH4OAc 3% mol, pH 5.94, 20° C., t = 0): 0.59%
